Positions of bridges follow the written chain, without caps; N, C: chain ends. Non-standard residues stand in square brackets, D forms with d. Residues, ends and D or L forms follow the SMILES beside them. *: point of attachment. X1 = CC(=O)NC1[C@H](OCCCNC(=O)COc2cc(C(=O)*)cc(-c3ccccc3)c2)OC(CO)[C@@H](O[C@@H]2OC(CO)[C@H](O)[C@H](O[C@H]3OC(CO)[C@H](O)C(O)[C@@H]3O)C2O)[C@@H]1O; X2 = CC(=O)NC1C(O)[C@H](OC2OC(CO)C(O)[C@H](O[C@H]3OC(CO)C(O)C(O)C3O)C2O)C(CO)O[C@H]1OCCCNC(=O)COc1cc(C(=O)*)cc(-c2ccccc2)c1; PEG8 = NCCOCCOCCOCCOCCOCCOCCOCCOCCC(=O)O; Gly(octyl) = CCCCCCCC[C@H](N)C(=O)O; Dab = NCC[C@H](N)C(=O)O; Dap = NC[C@H](N)C(=O)O; Ahx = NCCCCCC(=O)O
Legend:
Format in all cases: cell-based
[1] = test system: E. coli K1:018ac:H7 (ATCC 700973); assay: Flow cytometric anti-Gal IgM antibody recruitment assay, E. coli; conditions: for E. coli recruitment assay, side by side comparison with reference example (FIG. 2): 20 μM, in triplicate, E. coli ATCC 700973
Method: (§1) Flow Cytometric Antibody Recruitment Assay Using an Anti-Galα1-3Galβ1-4GlcNAc (Anti-Gal) Antibody
(§2) A secondary fluorescently labelled anti-IgM antibody was used to detect the anti-Gal antibody binding.
(§3) The assays were carried out in polystyrene 96-well U bottom plates (Costar). Frozen stocks of bacteria in mid-exponential phase were thawed, centrifuged and resuspended in LB broth, Miller (Fisher BP1426-500) at OD595=0.2. The bacteria was grown to mid-exponential phase (OD595=0.4), washed once with Hank's Balanced Salt Solution with calcium and magnesium (HBSS+/+) and then resuspended in HBSS+/+ at a bacterial D595=0.6. Bacteria was diluted ⅙ and placed in the 96-well U bottom plate. The bacteria were then incubated for 45 minutes with the compounds of Example 1-4 and reference compounds A-D (see Table 1) at 20 μM concentrations, Polymyxin B at 20 μM concentrations, or buffer alone (vehicle control), at room temperature and shaking at 450 rpm. The bacteria were then washed three times with 200 μL HBSS+/+, prior to adding 50 μL of the mouse/human chimeric anti-Gal IgM antibody M86 (Absolute Antibody Ab00532) at a final concentration of 25 μg/mL in HBSS+/+. The samples were incubated for 1 hour at room temperature shaking at 450 rpm. The bacteria were washed three times as above, prior to adding 100 μL of a FITC-labeled anti-human IgM secondary antibody (Biolegend 314506) at 10 μg/mL in HBSS+/+ and incubating at room temperature for 1 hour at 450 rpm. After three final washes with 200 μL HBSS+/+, the bacteria were resuspended in 200 μL HBSS+/+ and evaluated for anti-Gal antibody binding on a Cytoflex flow cytometer (Beckman Coulter). 50,000 counts of bacterial particles were sampled and the median fluorescent shift was recorded in the FITC-A channel. Data from all samples were analysed using Kaluza software (Beckman Coulter).
(§4) The fold shift over background was calculated by dividing the Median Fluorescent Intensity (MFI) obtained in the presence of 20 μM of the Example compounds by the MFI value obtained in the vehicle controls, i.e., the absence of Examples. The higher the fold shift over background, the more anti-Gal was bound to the bacterial surface. The shift in fluorescence intensity (FITC) occurs due to the binding event at each end of the molecule.
(§5) The fold shift over background was calculated by dividing the Median Fluorescent Intensity (MFI) obtained in the presence of 20 μM of the Example compounds (10 μM for Reference Example A and Example 2 against P. aeruginosa ATCC 27853, 6 μM for Reference Example A and Example 2 against P. aeruginosa PAO1 ATCC 15692) by the MFI value obtained in the vehicle controls, i.e., the absence of Examples. […] The shift in fluorescence intensity (FITC) occurs due to the binding event at each end of the molecule.

[2] = test system: P. aeruginosa (ATCC 27853); assay: Flow cytometric anti-Gal IgM antibody recruitment assay, P. aeruginosa ATCC 27853; conditions: for IgM Recruitment (20 μM, Average fold change) P. aeruginosa ATCC 27853: 20 μM compound, anti-Gal M86 IgM, MFI fold shift over vehicle control
Method: as §1, §2, §3, §4, §5

[3] = test system: K. pneumoniae (NCTC 13465); assay: Flow cytometric anti-Gal IgM antibody recruitment assay, K. pneumoniae; conditions: for IgM Recruitment (20 μM, Average fold change) K. pneumoniae NCTC 134655: 20 μM compound, anti-Gal M86 IgM, MFI fold shift over vehicle control; for K. pneumoniae recruitment assay, side by side comparison with reference example (FIG. 2): 20 μM, in triplicate
Method: as §1, §2, §3, §4
The fold shift over background was calculated by dividing the Median Fluorescent Intensity (MFI) obtained in the presence of 20 μM of the Example compounds (10 μM for Reference Example A and Example 2 against P. aeruginosa ATCC 27853, 6 μM for Reference Example A and Example 2 against P. aeruginosa PAO1 ATCC 15692) by the MFI value obtained in the vehicle controls, i.e., the absence of Examples. The higher the fold shift over background, the more anti-Gal was bound to the bacterial surface. The shift in fluorescence intensity (FITC) occurs due to the binding event at each end of the molecule.

Compound | E. coli recruitment assay, side by side comparison with reference example (FIG. 2) [1] | IgM Recruitment (20 μM, Average fold change) P. aeruginosa ATCC 27853 [2] | P. aeruginosa recruitment assay, side by side comparison with reference example (FIG. 2C) ([2]; 20 μM, in triplicate) | IgM Recruitment (20 μM, Average fold change) K. pneumoniae NCTC 134655 [3] | K. pneumoniae recruitment assay, side by side comparison with reference example (FIG. 2) [3] | IgM Recruitment (20 μM, Average fold change) E. coli K1 ATCC700973 ([1]; 20 μM compound, anti-Gal M86 IgM, MFI fold shift over vehicle control)
CCCCCCCC[C@H](NC(=O)CCCCCNC(=O)CCCCCNC(=O)c1cc(OCC(=O)NCCCO[C@@H]2OC(CO)[C@@H](OC3OC(CO)C(O)[C@H](O[C@H]4OC(CO)C(O)C(O)C4O)C3O)C(O)C2NC(C)=O)cc(-c2ccccc2)c1)C(=O)N[C@@H](CCN)C(=O)N[C@H](C(=O)N[C@@H](CCN)C(=O)N[C@H]1CCNC(=O)[C@H]([C@@H](C)O)NC(=O)[C@H](CCN)NC(=O)[C@H](CCN)NC(=O)[C@H](CC(C)C)NC(=O)[C@@H](Cc2ccccc2)NC(=O)[C@H](CCN)NC1=O)[C@@H](C)O (stereo partly shown) [Example 1] ({X2-Ahx-Ahx}-[Gly(octyl)][Dab]T[Dab][Dab][Dab][dF]L[Dab][Dab]T; lactam 5-C) | superiority over Reference Example B | 391 (n = 2) fold change | – | – | – | –
CCCCCCCC[C@H](NC(=O)CCOCCOCCOCCOCCOCCOCCOCCOCCNC(=O)c1cc(OCC(=O)NCCCO[C@@H]2OC(CO)[C@@H](O[C@@H]3OC(CO)[C@H](O)[C@H](O[C@H]4OC(CO)[C@H](O)C(O)[C@@H]4O)C3O)[C@H](O)C2NC(C)=O)cc(-c2ccccc2)c1)C(=O)N[C@@H](CCN)C(=O)N[C@H](C(=O)N[C@H](CO)C(=O)N[C@H]1CCNC(=O)[C@H]([C@@H](C)O)NC(=O)[C@H](CCN)NC(=O)[C@H](CCN)NC(=O)[C@H](CC(C)C)NC(=O)[C@@H](Cc2ccccc2)NC(=O)[C@H](CCN)NC1=O)[C@@H](C)O (stereo partly shown) [Example 3] ({X1-PEG8}-[Gly(octyl)][Dab]T[dS][Dab][Dab][dF]L[Dab][Dab]T; lactam 5-C) | superiority over Reference Example C | 1491 (n = 4) fold change | superiority over Reference Example C | 1015 (n = 4) fold change | superiority over Reference Example C | –
CCCCCCCC[C@H](NC(=O)CCOCCOCCOCCOCCOCCOCCOCCOCCNC(=O)c1cc(OCC(=O)NCCCO[C@@H]2OC(CO)[C@@H](O[C@@H]3OC(CO)[C@H](O)[C@H](O[C@H]4OC(CO)[C@H](O)C(O)[C@@H]4O)C3O)[C@H](O)C2NC(C)=O)cc(-c2ccccc2)c1)C(=O)N[C@@H](CCN)C(=O)N[C@H](C(=O)N[C@@H](CN)C(=O)N[C@H]1CCNC(=O)[C@H]([C@@H](C)O)NC(=O)[C@H](CCN)NC(=O)[C@H](CCN)NC(=O)[C@H](CC(C)C)NC(=O)[C@@H](Cc2ccccc2)NC(=O)[C@H](CCN)NC1=O)[C@@H](C)O (stereo partly shown) [Example 4] ({X1-PEG8}-[Gly(octyl)][Dab]T[Dap][Dab][Dab][dF]L[Dab][Dab]T; lactam 5-C) | superiority over Reference Example D | – | – | 898 (n = 2) fold change | superiority over Reference Example D | –
Polymyxin B [PMB, reference compound] | – | 1 (n = 5) fold change | – | 1 (n = 2) fold change | – | 1 (n = 5) fold change
